Assays:
barnyardgrass = assay: Test A pre-/postemergence greenhouse test; type: in vivo, Echinochloa crus-galli; settings: for Barnyardgrass plant response rating: 0 to 100 scale
Outline: (§1)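 Seeds sown in a loam soil–sand blend got a preemergence directed soil spray of compound in a non-phytotoxic solvent mixture containing surfactant. Postemergence sprays of the same formulation went at the same time onto plants 2–10 cm tall at the one- to two-leaf stage. Injury was scored visually against untreated controls after about ten days in the greenhouse.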

morningglory = assay: Test A pre-/postemergence greenhouse test; type: in vivo, Ipomoea spp.; settings: for Morningglory plant response rating: 0 to 100 scale
Outline: as §1

Goosegrass = assay: Test C pre-/postemergence test; type: in vivo, Eleusin indica
Outline: (§2)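 Compounds in a non-phytotoxic solvent with surfactant applied preemergence to seeded pots and, at the same time, postemergence to plants 2–18 cm tall (1- to 4-leaf stage). Paddy tests: pots flooded to 3 cm, compound applied into the water, depth held throughout.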

eastern black nightshade = assay: Test C pre-/postemergence test; type: in vivo, Solanum ptycanthum
Outline: as §2

crabgrass = assay: Test C pre-/postemergence test; type: in vivo, Digitaria sanguinalis
Outline: as §2

wheat [1] = assay: Test C pre-/postemergence test; type: in vivo, Triticum aestivum; settings: for Wheat plant response rating: preemergence, scale 0 (no effect) to 100 (complete control)
Outline: as §2

umbrella sedge = assay: Test C flooded paddy test; type: in vivo, Cyperus difformis; settings: Flood
Outline: (§3)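 Pots were flooded to 3 cm above the soil surface at treatment, compound applied directly to the paddy water, and that depth held throughout. Plants were kept in a greenhouse for 13 to 15 days, then visually rated against untreated controls.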

rice = assay: Test C flooded paddy test; type: in vivo, Oryza sativa; settings: Flood
Outline: as §3

lambsquarters = assay: Test C pre-/postemergence test; type: in vivo, Chenopodium album
Outline: as §2

giant foxtail = assay: Test A pre-/postemergence greenhouse test; type: in vivo, Setaria faberi; settings: for Foxtail, Giant plant response rating: 0 to 100 scale
Outline: as §1

[2] = tested on: common (oilseed) sunflower; assay: Test C pre-/postemergence test; type: in vivo, Helianthus annuus; settings: for Sunflower plant response rating: preemergence, scale 0 (no effect) to 100 (complete control)
Outline: as §2

wheat [3] = assay: Test A pre-/postemergence greenhouse test; type: in vivo, Triticum aestivum; settings: for Wheat plant response rating: 0 to 100 scale
Outline: as §1

corn = assay: Test A pre-/postemergence greenhouse test; type: in vivo, Zea mays; settings: for Corn plant response rating: 0 to 100 scale
Outline: as §1

Surinam grass = assay: Test C pre-/postemergence test; type: in vivo, Brachiaria decumbens; settings: for Surinam Grass plant response rating: preemergence, scale 0 (no effect) to 100 (complete control)
Outline: as §2

bermudagrass = assay: Test C pre-/postemergence test; type: in vivo, Cynodon dactylon
Outline: as §2

pigweed = assay: Test C pre-/postemergence test; type: in vivo, Amaranthus retroflexus
Outline: as §2

redroot pigweed = assay: Test A pre-/postemergence greenhouse test; type: in vivo, Amaranthus retroflexus; settings: for Pigweed plant response rating: 0 to 100 scale
Outline: as §1

[4] = Postemergence, 125 g ai/ha, 0 is no effect, 100 is complete control
[5] = Postemergence, 500 g ai/ha, 0 is no effect, 100 is complete control
[6] = Preemergence, 125 g ai/ha, 0 no effect, 100 complete control
[7] = Preemergence, 500 g ai/ha, 0 to 100 scale where 0 is no effect and 100 is complete control
[8] = 31 g ai/ha, Preemergence, scale 0 to 100
[9] = 62 g ai/ha, preemergence, scale 0 (no effect) to 100 (complete control)
[10] = preemergence, 125 g ai/ha, scale 0 (no effect) to 100 (complete control)
[11] = 31 g ai/ha, scale 0 to 100 (0 no effect, 100 complete control)
[12] = 62 g ai/ha, scale 0 to 100, 0 no effect, 100 complete control, 13 to 15 days
[13] = 125 g ai/ha, scale 0 to 100, 0 no effect, 100 complete control, 13 to 15 days
[14] = 250 g ai/ha, scale 0 to 100 (0 no effect, 100 complete control)

**Q.** What does the source list for `Cc1cc[n+]([O-])c(S(=O)(=O)C(C)c2c(C(F)(F)F)nn(C)c2Cl)c1` (racemic) [Compound 14]?
**A.** Barnyardgrass plant response rating (barnyardgrass; [4]): 30; Barnyardgrass plant response rating (barnyardgrass; [5]): 60; Barnyardgrass plant response rating (barnyardgrass; [6]): 80; Plant response rating, Barnyardgrass (barnyardgrass; [7]): 100; Morningglory plant response rating (morningglory; [4]): 30; Morningglory plant response rating (morningglory; [5]): 50; Morningglory plant response rating (morningglory; [6]): 10; Plant response rating, Morningglory (morningglory; [7]): 100; Goosegrass plant response rating (Goosegrass; [8]): 100; Goosegrass plant response rating (Goosegrass; [9]): 100; Plant response rating (0 to 100), Goosegrass (Goosegrass; Preemergence, 250 g ai/ha): 100; Goosegrass plant response rating (Goosegrass; [10]): 100; Nightshade plant response rating (eastern black nightshade; [8]): 80; Nightshade plant response rating (eastern black nightshade; [9]): 100; Plant response rating (0 to 100), Nightshade (eastern black nightshade; Preemergence, 250 g ai/ha): 100; Nightshade plant response rating (eastern black nightshade; [10]): 100; Crabgrass, Large plant response rating (crabgrass; [8]): 100; Crabgrass, Large plant response rating (crabgrass; [9]): 100; Plant response rating (0 to 100), Crabgrass, Large (crabgrass; Preemergence, 250 g ai/ha): 100; Crabgrass, Large plant response rating (crabgrass; [10]): 100; Wheat plant response rating (wheat [1]; 62 g ai/ha): 20; Plant response rating (0 to 100), Wheat (wheat [1]; Preemergence, 250 g ai/ha): 80; Wheat plant response rating (wheat [1]; 125 g ai/ha): 50; Plant response rating, Sedge, Umbrella (umbrella sedge; [11]): 75; Plant response rating, Sedge, Umbrella (umbrella sedge; [12]): 85; Plant response rating, Sedge, Umbrella (umbrella sedge; [13]): 100; Plant response rating, Sedge, Umbrella (umbrella sedge; [14]): 100; Plant response rating, Rice (rice; [11]): 0; Plant response rating, Rice (rice; [12]): 0; Plant response rating, Rice (rice; [13]): 60; Plant response rating, Rice (rice; [14]): 70; Lambsquarters plant response rating (lambsquarters; [8]): 30; Lambsquarters plant response rating (lambsquarters; [9]): 100; Plant response rating (0 to 100), Lambsquarters (lambsquarters; Preemergence, 250 g ai/ha): 100; Lambsquarters plant response rating (lambsquarters; [10]): 100; Foxtail, Giant plant response rating (giant foxtail; [4]): 70; Foxtail, Giant plant response rating (giant foxtail; [5]): 80; Foxtail, Giant plant response rating (giant foxtail; [6]): 90; Plant response rating, Foxtail, Giant (giant foxtail; [7]): 100; Sunflower plant response rating ([2]; 62 g ai/ha): 85; Plant response rating (0 to 100), Sunflower ([2]; Preemergence, 250 g ai/ha): 100; Sunflower plant response rating ([2]; 125 g ai/ha): 98; Wheat plant response rating (wheat [3]; [4]): 40; Wheat plant response rating (wheat [3]; [5]): 50; Wheat plant response rating (wheat [3]; [6]): 40; Plant response rating, Wheat (wheat [3]; [7]): 60; Corn plant response rating (corn; [4]): 0; Corn plant response rating (corn; [5]): 50; Corn plant response rating (corn; [6]): 0; Plant response rating, Corn (corn; [7]): 70; Surinam Grass plant response rating (Surinam grass; 62 g ai/ha): 85; Plant response rating (0 to 100), Surinam Grass (Surinam grass; Preemergence, 250 g ai/ha): 100; Surinam Grass plant response rating (Surinam grass; 125 g ai/ha): 95; Bermudagrass plant response rating (bermudagrass; [8]): 80; Bermudagrass plant response rating (bermudagrass; [9]): 100; Plant response rating (0 to 100), Bermudagrass (bermudagrass; Preemergence, 250 g ai/ha): 100; Bermudagrass plant response rating (bermudagrass; [10]): 100; Pigweed plant response rating (pigweed; [8]): 100; Pigweed plant response rating (pigweed; [9]): 100; Plant response rating (0 to 100), Pigweed (pigweed; Preemergence, 250 g ai/ha): 100; Pigweed plant response rating (pigweed; [10]): 100; Pigweed plant response rating (redroot pigweed; [4]): 0; Pigweed plant response rating (redroot pigweed; [5]): 10; Pigweed plant response rating (redroot pigweed; [6]): 100; Plant response rating, Pigweed (redroot pigweed; [7]): 100

— US20100298141A1, “SUBSTITUTED PYRIDINE N-OXIDE HERBICIDES” (E. I. DU PONT DE NEMOURS AND COMPANY, priority 2007, published 2010)
